We go through 15 compounds from patent publication US20060142315A1, “Substituted biaryl piperazinyl-pyridine analogues” (priority 2003, published 2006).

SMILES strings stand for the structures. Where two headings read alike, the source gives them in different places.

Series [1] has as its target P. carinii (Pc) dihydrofolate reductase (Pneumocystis carinii, UniProt P16184). The series can be described thus: Standardized spectrophotometric DHFR inhibition assay, P. carinii enzyme. The format is biochemical. Particulars: for IC50: Pc DHFR.
Series [2] concerns the target T1, T. gondii (Tg) dihydrofolate reductase (Toxoplasma gondii, UniProt Q07422). The format is biochemical.
The next series has as its target T2, rat liver DHFR (Rattus norvegicus, UniProt Q920D2).
T2 construct: rat liver DHFR; from tissue; host or cells: rat liver
T2 sequence (Q920D2 1-187): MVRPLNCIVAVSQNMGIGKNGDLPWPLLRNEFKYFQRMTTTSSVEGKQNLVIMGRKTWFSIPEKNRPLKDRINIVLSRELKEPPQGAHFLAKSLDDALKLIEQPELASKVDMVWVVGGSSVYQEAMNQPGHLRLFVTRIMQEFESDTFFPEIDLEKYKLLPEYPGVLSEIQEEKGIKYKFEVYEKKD
Put plainly: Standardized spectrophotometric DHFR inhibition assay, rat liver enzyme. It is filed as biochemical.

Series [3] addresses M. avium (Ma) dihydrofolate reductase (Mycobacterium avium, UniProt O30463). Put plainly: biochemical.
The target of series [4] is T1, T. gondii (Tg) dihydrofolate reductase. To be noted: cited from earlier work; for IC50: read-out: IC50 against Tg DHFR.
The mark [5] stands for this setting: relative to rat liver DHFR, 95% confidence limits in parentheses.

Chain of P. carinii (Pc) dihydrofolate reductase (P16184 whole entry): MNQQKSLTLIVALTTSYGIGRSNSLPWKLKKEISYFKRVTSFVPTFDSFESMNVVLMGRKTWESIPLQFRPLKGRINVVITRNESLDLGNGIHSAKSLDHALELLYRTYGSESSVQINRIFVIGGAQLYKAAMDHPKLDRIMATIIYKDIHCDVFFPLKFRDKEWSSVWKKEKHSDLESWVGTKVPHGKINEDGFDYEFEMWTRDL
Chain of M. avium (Ma) dihydrofolate reductase (O30463 1-181): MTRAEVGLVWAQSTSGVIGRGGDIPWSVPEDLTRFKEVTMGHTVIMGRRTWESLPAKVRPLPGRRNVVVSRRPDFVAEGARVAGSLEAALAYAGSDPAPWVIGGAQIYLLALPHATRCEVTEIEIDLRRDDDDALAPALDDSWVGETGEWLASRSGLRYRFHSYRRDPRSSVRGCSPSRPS
T1 sequence (Q07422 whole entry): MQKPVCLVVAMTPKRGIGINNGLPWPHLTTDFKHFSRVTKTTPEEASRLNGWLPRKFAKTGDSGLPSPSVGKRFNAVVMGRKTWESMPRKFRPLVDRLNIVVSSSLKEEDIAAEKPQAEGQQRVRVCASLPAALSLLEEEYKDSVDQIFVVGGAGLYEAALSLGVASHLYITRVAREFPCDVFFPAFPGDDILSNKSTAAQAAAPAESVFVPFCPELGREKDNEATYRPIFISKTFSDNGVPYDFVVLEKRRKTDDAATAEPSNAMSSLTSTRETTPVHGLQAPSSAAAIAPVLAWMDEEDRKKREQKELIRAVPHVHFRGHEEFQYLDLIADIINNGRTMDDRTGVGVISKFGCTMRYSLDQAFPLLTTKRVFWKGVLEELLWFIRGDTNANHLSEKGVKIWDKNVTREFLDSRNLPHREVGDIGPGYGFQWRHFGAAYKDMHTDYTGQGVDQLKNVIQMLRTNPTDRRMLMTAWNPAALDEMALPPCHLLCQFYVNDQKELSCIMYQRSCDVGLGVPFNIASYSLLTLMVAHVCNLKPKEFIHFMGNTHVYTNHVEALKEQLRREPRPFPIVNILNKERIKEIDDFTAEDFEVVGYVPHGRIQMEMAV

`COc1ccc(CCCCCCC(=O)O)cc1Cc1cnc(N)nc1N` [Compound 7]: the half-inhibitory concentration (IC50) in series [1] was 0.53 µM; in series [2], 0.03 µM; against rat liver DHFR it was 4.6 µM; in series [3], 0.089 µM.
Consider `COc1ccc(CCCCCC(=O)O)cc1Cc1cnc(N)nc1N` [Compound 6], for which the IC50 was 0.15 µM in series [1], 0.0084 µM in series [2] (Tg DHFR), 4.1 µM at rat liver DHFR and 0.016 µM in series [3] (Ma DHFR).
`CCc1nc(N)nc(N)c1-c1ccc(Cl)c(N=NN(C)C)c1` [Compound 38]: the half-inhibitory concentration (IC50) in series [4] (literature compounds of Table 2, standardized assay conditions) is 0.31 µM. Moreover, in series [4] (literature compounds of Table 2, Tg versus rat DHFR), the “SI against Tg DHFR” value is on record as 61.
On to `COc1ccc(OCc2ccc(C(=O)O)cc2)cc1Cc1cnc(N)nc1N` [Compound 9, 2,4-Diamino-5-(2′-methoxy-5′-(4″-carboxybenzyloxy)benzyl]pyrimidine], for which the IC50 in series [2] (Tg DHFR) was found to be 2 µM; at rat liver DHFR, 21 µM; in series [3] (Ma DHFR), 0.06 µM.
For `COc1ccc(C#CCOc2cccc(C(=O)O)c2)cc1Cc1cnc(N)nc1N` [Compound 11, 2,4-Diamino-5-[2′-methoxy-5′-[3-(3″-carboxyphenoxy)-1-propynyl]benzyl]pyrimidine], the IC50 was determined as 5.6 µM in series [1], 1.6 µM in series [2], 14 µM on rat liver DHFR and 0.057 µM in series [3].
For the compound `COc1ccc(C#CCOc2ccccc2C(=O)O)cc1Cc1cnc(N)nc1N` [Compound 10, 2,4-Diamino-5-[2′-methoxy-5′-[3-(2″-carboxyphenoxy)propyn-1-yl]benzyl]pyrimidine], the IC50 in series [1] amounted to 2.3 µM; in series [2] (Tg DHFR), 0.5 µM; against rat liver DHFR, 6.2 µM; in series [3], 0.036 µM. The “Selectivity Index (SI) P. carinii” value in series [1] (setting [5]) is recorded as 2.7 (2.1-3.5). The “Selectivity Index (SI) T. gondii” value in series [2] (setting [5]) is 13 (9.3-17). Further, in series [3], the “Selectivity Index (SI) M. avium” value is 170 (130-230).
In the case of `COc1ccc(OCc2cccc(C(=O)O)c2)cc1Cc1cnc(N)nc1N` [Compound 8, 2,4-Diamino-5-[2′-methoxy-5′-(3″-carboxybenzyloxy)benzyl]pyrimidine], the IC50 in series [1] worked out at 0.89 µM; in series [2], 0.6 µM; on rat liver DHFR, 19 µM; in series [3], 0.12 µM.
Consider `CCc1nc(N)nc(N)c1-c1ccc(Cl)c(N=NN2CCOCC2)c1` [Compound 37], for which, in series [4], the “SI against Tg DHFR” value is listed as 37: R^1R^2 = morpholino (IC50 = 0.19 μM, SI = 140)^18 and the half-inhibitory concentration (IC50) is 0.19 µM.
Consider `COc1ccc(C#CCCCC(=O)O)cc1Cc1cnc(N)nc1N` [Compound 3], for which the melting point is 121 to 124 °C. In series [1], this compound returned an IC50 of 0.028 µM. Moreover, in series [2], the IC50 was found to be 0.032 µM. Besides, at rat liver DHFR, half-maximal inhibition (IC50) required 2.2 µM. In series [3] (Ma DHFR), this compound had an IC50 of 0.007 µM.
Turning to `COc1ccc(OCCCCC(=O)O)cc1Cc1cnc(N)nc1N` [Compound 1b, reference compound], the IC50 in series [2] was found to be 0.11 µM; in series [3] (Ma DHFR) it was 0.058 µM.
Compound `COc1ccc(C#CCCC(=O)O)cc1Cc1cnc(N)nc1N` [Compound 2] displayed a 50% inhibitory concentration (IC50) in series [2] (Tg DHFR) of 0.097 µM.
In the case of `COc1cc(Cc2cnc(N)nc2N)cc(C#CCCCC(=O)O)c1OC` [Compound 49, 2,4-Diamino-5-[3′,4′-dimethoxy-5′-(5-carboxy-1-pentynyl)benzyl]-pyrimidine], the 50% inhibitory concentration (IC50) in series [1] turned out to be 0.001 µM; at rat liver DHFR, 5000 µM; in series [3] it was 0.0024 µM.
Consider `COc1ccc(CCCCC(=O)O)cc1Cc1cnc(N)nc1N` [Compound 5], for which the melting point fell in the range of 134 to 137 °C. In addition, the IC50 in series [1] amounted to 0.15 µM. The compound further had a concentration for half-maximal inhibition (IC50) in series [2] (Tg DHFR) of 0.058 µM. Besides, the 50% inhibitory concentration (IC50) against rat liver DHFR was determined as 3.2 µM. Also, in series [3] (Ma DHFR), inhibition was half-maximal at 0.035 µM (IC50).
For `Nc1nc(N)c2nc(CN3c4ccccc4C=Cc4ccccc43)cnc2n1` [Compound 40], the “SI against Tg DHFR” value in series [4] was 40: R = N-Dibenz[b,f]azepinyl (IC50 = 0.043 μM, SI = 102)^3g.
As to `COc1ccc(C#CCCCCC(=O)O)cc1Cc1cnc(N)nc1N` [Compound 4], the melting point was 187 to 189 °C. In series [1], this compound displayed a 50% inhibitory concentration (IC50) of 0.87 µM. The compound also yielded an IC50 in series [2] of 0.072 µM. For the same compound, half-maximal inhibition on rat liver DHFR (IC50) required 25 µM. For the same compound, the IC50 in series [3] was 0.041 µM.
